Data published in US10472347B2, “Aminopyrazine compounds with A2A antagonist properties” (Merck Sharp & Dohme Corp., priority 2014, dated 2019).

target: T1, human A2a receptor (Homo sapiens, UniProt P29274); experiment: A2a competition binding assay, Scintillation Proximity technology; conditions: membranes from HEK293 cells expressing human A2a receptor; Ki by Cheng-Prusoff equation
T1 construct: purchased Perkin-Elmer RBHA2AM400UA; host or cells: HEK293 cells (membranes)
Experimental: Binding affinities of compounds of the invention for the human A2a receptor were determined in a competition binding assay using Scintillation Proximity technology. Thus, […] from HEK293 cells expressing the human A2a receptor were incubated with a compound of the invention at concentrations ranging from 3000 nM to 0.15 nM in a reaction mixture containing also 0.5 nM of a tritiated form of 5-amino-7-[2-phenethyl]-2-(furan-2-yl)-7H-pyrazolo[4,3-e][1,2,4]triazolo[1,5-c]pyrimidine (the tritiated compound) and 100 μg of wheat germ agglutin-coated yttrium silicate SPA beads for one hour at room temperature with agitation. The beads were then allowed to settle to the bottom of the wells for 1 hr, after which the membrane-associated radioactivity was determined by scintillation counting in a TopCount microplate reader. Ki values were determined using the Cheng-Prusoff equation.
HEK293 cells expressing the human, rat, dog or monkey adenosine 2a receptor (Purchased from Perkin-Elmer # RBHA2AM400UA).
The Tritiated compound was prepared in-house by MRL Radiochemistry according to published methods.
Wheat germ agglutinin-coated yttrium silicate SPA beads (GE Healthcare #RPNQ0023). Dilute to 25 mg/ml in assay buffer.
Assay Buffer was prepared in house: Dulbecco's calcium and magnesium free phosphate buffered saline+10 mM MgCl2
Adenosine deaminase from calf intestine, 10 mg/2 ml (Roche #10 102 105 001).
A2a antagonist standard (9-chloro-1-(2-furanyl)-[1,2,4]triazolo1,5-c]quinazolin-5-amine from Tocris Bioscience)
Make eight 1:3 serial dilutions in 100% DMSO from a 3 mM compound stock
Transfer 50 nl of compound into a 384-well OptiPlate (Perkin Elmer).
Typically, final concentrations of compound used in the assay ranged from 3000 nM to 0.152 nM.
Dilute a solution of the Tritiated compound to 1.25 nM in assay buffer. This is a 2.5× solution. The final concentration in the assay is 0.5 nM. Calculate the concentration by counting two 5 μl aliquots.
Use 0.25 ug of membrane/well. Dilute membranes to 9.7 μg/ml in assay buffer. Treat with 20 ug/ml adenosine deaminase (ADA) for 15 minutes at room temperature to degrade endogenous adenosine.
Use 100 μg/well wheat germ agglutinin-coated yttrium silicate SPA beads.
Mix ADA-treated membranes and SPA beads together for 30 min prior to assay.
To the Perkin-Elmer Optiplate-384 containing the compound titration add 20 μl of 2.5× solution of the Tritiated compound and 30 μl of the membrane-bead mixture. Incubate for one hour at room temperature with agitation.
Include total binding (assay buffer+1% DMSO) and non-specific binding (CGS15943, 1 μM) wells.
Allow the beads to settle for one hour.
A curve fitting program (i.e., Prism, Activity Base, Chemcart) is used to determine the EC50. The Ki value is calculated using the Cheng-Prusoff equation. Ki=EC50/(1+(radioligand concentration/Kd))

T1 sequence (P29274 whole entry): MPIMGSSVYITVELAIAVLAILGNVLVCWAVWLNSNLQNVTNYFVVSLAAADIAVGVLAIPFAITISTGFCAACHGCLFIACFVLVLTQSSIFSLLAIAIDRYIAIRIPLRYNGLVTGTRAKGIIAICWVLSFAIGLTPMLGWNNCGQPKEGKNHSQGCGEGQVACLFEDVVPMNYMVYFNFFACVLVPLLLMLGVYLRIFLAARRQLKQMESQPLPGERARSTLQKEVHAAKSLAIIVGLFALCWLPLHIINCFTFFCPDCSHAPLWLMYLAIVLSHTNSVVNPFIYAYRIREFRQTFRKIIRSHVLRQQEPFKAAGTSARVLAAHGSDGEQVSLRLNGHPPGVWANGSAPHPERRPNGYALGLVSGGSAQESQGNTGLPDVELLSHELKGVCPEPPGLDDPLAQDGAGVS

First: Cc1cc(C)nc(CNC(=O)c2nc(C)c(-c3ncco3)nc2N)c1 [Ex-35, 3-amino-N-[(4,6-dimethylpyridin-2-yl)methyl]-6-methyl-5-(1,3-oxazol-2-yl)pyrazine-2-carboxamide]
Second: Cc1cnnc(CNC(=O)c2nc(C)c(-c3ncco3)nc2N)c1 [Ex-56, 3-amino-6-methyl-N-[(5-methylpyridazin-3-yl)methyl]-5-(1,3-oxazol-2-yl)pyrazine-2-carboxamide]
The Ki of the first is 54-fold lower: 0.396 nM for the first, 21.5 nM for the second. The first binds more tightly here.

Cc1nc(C(=O)NCc2cccc3c2ncn3CC(F)F)c(N)nc1-c1ncco1 [Ex-36, 3-amino-N-{[1-(2,2-difluoroethyl)-1H-benzimidazol-4-yl]methyl}-6-methyl-5-(1,3-oxazol-2-yl)pyrazine-2-carboxamide] and Cc1nc(C(=O)NCc2nccn2CC(F)F)c(N)nc1-c1ncco1 [Ex-44, 3-amino-N-{[1-(2,2-difluoroethyl)-1H-imidazol-2-yl]methyl}-6-methyl-5-(1,3-oxazol-2-yl)pyrazine-2-carboxamide] are within 1.5-fold of each other in Ki: 0.464 nM for the first, 0.533 nM for the second.

Going from Cc1nc(C(=O)NCc2nc(C)c(C)n2C)c(N)nc1-c1ncco1 [Ex-37, 3-amino-6-methyl-5-(1,3-oxazol-2-yl)-N-[(1,4,5-trimethyl-1H-imidazol-2-yl)methyl]pyrazine-2-carboxamide] to Cc1nc(C(=O)NCc2ncn(C(C)C)c2C)c(N)nc1-c1ncco1 [Ex-38, 3-amino-6-methyl-N-{[5-methyl-1-(1-methylethyl)-1H-imidazol-4-yl]methyl}-5-(1,3-oxazol-2-yl)pyrazine-2-carboxamide], the Ki falls from 7.77 nM to 2.27 nM (3.4-fold). The second binds more tightly here.

First: Cc1nc(C(=O)NCc2cnco2)c(N)nc1-c1ncco1 [Ex-39, 3-amino-6-methyl-5-(1,3-oxazol-2-yl)-N-(1,3-oxazol-5-ylmethyl)pyrazine-2-carboxamide]
Second: Cc1nc(C(=O)NCc2ccns2)c(N)nc1-c1ncco1 [Ex-40, 3-amino-N-(isothiazol-5-ylmethyl)-6-methyl-5-(1,3-oxazol-2-yl)pyrazine-2-carboxamide]
The Ki of the first is 2.3-fold higher: 33.9 nM for the first, 14.6 nM for the second.

First: Cc1ccc(C)c(CNC(=O)c2nc(C)c(-c3ncco3)nc2N)n1 [Ex-41, 3-amino-N-[(3,6-dimethylpyridin-2-yl)methyl]-6-methyl-5-(1,3-oxazol-2-yl)pyrazine-2-carboxamide]
Second: Cc1ccnnc1CNC(=O)c1nc(C)c(-c2ncco2)nc1N [Ex-48, 3-amino-6-methyl-N-[(4-methylpyridazin-3-yl)methyl]-5-(1,3-oxazol-2-yl)pyrazine-2-carboxamide]
The Ki of the first is 1.7-fold lower: 0.593 nM for the first, 1.01 nM for the second.

Compared with Cc1nc(C(=O)NCc2cc(C(F)(F)F)ccn2)c(N)nc1-c1ncco1 [Ex-42, 3-amino-6-methyl-5-(1,3-oxazol-2-yl)-N-{[4-(trifluoromethyl)pyridin-2-yl]methyl}pyrazine-2-carboxamide], Cc1nc(C(=O)NCc2ccc(C(F)(F)F)cn2)c(N)nc1-c1ncco1 [Ex-59, 3-amino-6-methyl-5-(1,3-oxazol-2-yl)-N-{[5-(trifluoromethyl)pyridin-2-yl]methyl}pyrazine-2-carboxamide] is 22-fold higher in Ki: 0.672 nM for the first, 14.8 nM for the second.

Compared with COc1cccnc1CNC(=O)c1nc(C)c(-c2ncco2)nc1N [Ex-43, 3-amino-N-[(3-methoxypyridin-2-yl)methyl]-6-methyl-5-(1,3-oxazol-2-yl)pyrazine-2-carboxamide], Cc1nc(C(=O)NCc2cccnc2O)c(N)nc1-c1ncco1 [Ex-64, 3-amino-N-[(2-hydroxypyridin-3-yl)methyl]-6-methyl-5-(1,3-oxazol-2-yl)pyrazine-2-carboxamide] is 13-fold higher in Ki: 0.116 nM for the first, 1.5 nM for the second.

First: Cc1nc(C(=O)NCc2cc(Cl)ccn2)c(N)nc1-c1ncco1 [Ex-45, 3-amino-N-[(4-chloropyridin-2-yl)methyl]-6-methyl-5-(1,3-oxazol-2-yl)pyrazine-2-carboxamide]
Second: Cc1nc(C(=O)NCc2cc(F)ccn2)c(N)nc1-c1ncco1 [Ex-61, 3-amino-N-[(4-fluoropyridin-2-yl)methyl]-6-methyl-5-(1,3-oxazol-2-yl)pyrazine-2-carboxamide]
The Ki of the first is 3.3-fold lower: 0.735 nM for the first, 2.46 nM for the second. The first binds more tightly here.

Compared with Cc1nc(C(=O)NCc2ccncc2Cl)c(N)nc1-c1ncco1 [Ex-46, 3-amino-N-[(3-chloropyridin-4-yl)methyl]-6-methyl-5-(1,3-oxazol-2-yl)pyrazine-2-carboxamide], Cc1cnccc1CNC(=O)c1nc(C)c(-c2ncco2)nc1N [Ex-67, 3-amino-6-methyl-N-[(3-methylpyridin-4-yl)methyl]-5-(1,3-oxazol-2-yl)pyrazine-2-carboxamide] is 11-fold higher in Ki: 5.59 nM for the first, 64.1 nM for the second.

First: Cc1nc(C(=O)NCc2ncc(F)cc2Cl)c(N)nc1-c1ncco1 [Ex-47, 3-amino-N-[(3-chloro-5-fluoropyridin-2-yl)methyl]-6-methyl-5-(1,3-oxazol-2-yl)pyrazine-2-carboxamide]
Second: Cc1nc(C(=O)NCc2ncc(F)cc2F)c(N)nc1-c1ncco1 [Ex-62, 3-amino-N-[(3,5-difluoropyridin-2-yl)methyl]-6-methyl-5-(1,3-oxazol-2-yl)pyrazine-2-carboxamide]
The Ki of the first is 2.9-fold higher: 1.8 nM for the first, 0.622 nM for the second.

Cc1nc(C(=O)NCc2ccc(Cl)cn2)c(N)nc1-c1ncco1 [Ex-49, 3-amino-N-[(5-chloropyridin-2-yl)methyl]-6-methyl-5-(1,3-oxazol-2-yl)pyrazine-2-carboxamide] and Cc1nc(C(=O)NCc2ccc(F)cn2)c(N)nc1-c1ncco1 [Ex-57, 3-amino-N-[(5-fluoropyridin-2-yl)methyl]-6-methyl-5-(1,3-oxazol-2-yl)pyrazine-2-carboxamide] are within 1.5-fold of each other in Ki: 1.26 nM for the first, 1.03 nM for the second.

Compared with Cc1nc(C(=O)NCc2cccn(C)c2=O)c(N)nc1-c1ncco1 [Ex-50, 3-amino-6-methyl-N-[(1-methyl-2-oxo-1,2-dihydropyridin-3-yl)methyl]-5-(1,3-oxazol-2-yl)pyrazine-2-carboxamide], Cc1nc(C(=O)NCc2cccnc2Cl)c(N)nc1-c1ncco1 [Ex-65, 3-amino-N-[(2-chloropyridin-3-yl)methyl]-6-methyl-5-(1,3-oxazol-2-yl)pyrazine-2-carboxamide] is 3.4-fold higher in Ki: 1.25 nM for the first, 4.19 nM for the second.

Compared with Cc1nc(C(=O)NCc2ccccn2)c(N)nc1-c1ncco1 [Ex-51, 3-amino-6-methyl-5-(1,3-oxazol-2-yl)-N-(pyridin-2-ylmethyl)pyrazine-2-carboxamide], Cc1nc(C(=O)NCc2cccc[n+]2[O-])c(N)nc1-c1ncco1 [Ex-52, 3-amino-6-methyl-5-(1,3-oxazol-2-yl)-N-[(1-oxidopyridin-2-yl)methyl]pyrazine-2-carboxamide] is 6.8-fold higher in Ki: 0.717 nM for the first, 4.88 nM for the second.

Going from Cc1nc(C(=O)NCc2ccc(F)nc2)c(N)nc1-c1ncco1 [Ex-53, 3-amino-N-[(6-fluoropyridin-3-yl)methyl]-6-methyl-5-(1,3-oxazol-2-yl)pyrazine-2-carboxamide] to COc1ccc(CNC(=O)c2nc(C)c(-c3ncco3)nc2N)nc1C(F)(F)F [Ex-55, 3-amino-N-{[5-methoxy-6-(trifluoromethyl)pyridin-2-yl]methyl}-6-methyl-5-(1,3-oxazol-2-yl)pyrazine-2-carboxamide], the Ki falls from 26.1 nM to 3.89 nM (6.7-fold). The second binds more tightly here.

Cc1nc(C(=O)NCc2cc(C(F)(F)F)cc(Cl)n2)c(N)nc1-c1ncco1 [Ex-54, 3-amino-N-{[6-chloro-4-(trifluoromethyl)pyridin-2-yl]methyl}-6-methyl-5-(1,3-oxazol-2-yl)pyrazine-2-carboxamide] and Cc1nc(C(=O)NCc2cc(C(F)F)cc(C(F)F)n2)c(N)nc1-c1ncco1 [Ex-63, 3-amino-N-{[4,6-bis(difluoromethyl)pyridin-2-yl]methyl}-6-methyl-5-(1,3-oxazol-2-yl)pyrazine-2-carboxamide] are within 1.5-fold of each other in Ki: 1.77 nM for the first, 2.52 nM for the second.

First: Cc1nc(C(=O)NCc2nccc(OCC(F)(F)F)c2C)c(N)nc1-c1ncco1 [Ex-58, 3-amino-6-methyl-N-{[3-methyl-4-(2,2,2-trifluoroethoxy)pyridin-2-yl]methyl}-5-(1,3-oxazol-2-yl)pyrazine-2-carboxamide]
Second: Cc1nc(C(=O)NCC(C)(C)c2ccncc2)c(N)nc1-c1ncco1 [Ex-60, 3-amino-6-methyl-N-(2-methyl-2-pyridin-4-ylpropyl)-5-(1,3-oxazol-2-yl)pyrazine-2-carboxamide]
The Ki of the first is 2-fold lower: 4.56 nM for the first, 9.2 nM for the second.

With Cc1nc(C(=O)NC2CCN(c3ncccn3)CC2)c(N)nc1-c1ncco1 [Ex-66, 3-amino-6-methyl-5-(1,3-oxaol-2-yl)-N-(1-pyrimidin-2-ylpiperidin-4-yl)pyrazine-2-carboxamide] the Ki was 24.4 nM.
